Test results taken from PMC10790750, “A widespread methylotroph acyl-homoserine lactone synthase produces a new quorum sensing signal that regulates swarming in Methylobacterium fujisawaense” (mBio, 2023).
Like-named read-outs stand apart in the source and are kept apart here.

Assays:
Format in all cases: cell-based
MmaI (Ga0373204_3345) = target: T1, MmaI (Ga0373204_3345) (Methylobacterium fujisawaense, UniProt A0ABR6DCY1); experiment: LC-MS/MS, NMR of culture extract; deletion mutant control; settings: native strain grown on methanol
T1 construct: gene GGQ91_003338; native expression in DSM5686; deletion mutant as control

MmaR (MmaRDSM5686) = target: T2, MmaR (MmaRDSM5686) (Methylobacterium fujisawaense, UniProt A0ABR6DCX3); experiment: mScarlet reporter activation in M. extorquens AWP370
T2 construct: gene GGQ91_003337; mmaR inserted in genome of Methylorubrum extorquens AWP227 (mlaR/mlaI deleted) under native mlaR promoter; reporter strain AWP370 with mmaI promoter-mScarlet

Mrad2831_5763 (MmaI) = target: T3, Mrad2831_5763 (MmaI) (Methylobacterium radiotolerans, UniProt B1M2Q9); experiment: LC-MS/MS of culture extract after heterologous expression; settings: product identified by m/z, retention time and fragmentation
T3 construct: heterologously expressed
T3 sequence (B1M2Q9 1-207): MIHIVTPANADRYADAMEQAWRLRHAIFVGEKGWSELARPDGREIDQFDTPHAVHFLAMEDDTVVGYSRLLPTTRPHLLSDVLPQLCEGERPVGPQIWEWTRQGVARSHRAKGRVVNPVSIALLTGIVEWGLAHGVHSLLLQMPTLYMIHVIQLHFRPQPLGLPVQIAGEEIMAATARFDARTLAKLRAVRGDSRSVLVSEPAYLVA

T2 sequence (A0ABR6DCX3 entry or part of it): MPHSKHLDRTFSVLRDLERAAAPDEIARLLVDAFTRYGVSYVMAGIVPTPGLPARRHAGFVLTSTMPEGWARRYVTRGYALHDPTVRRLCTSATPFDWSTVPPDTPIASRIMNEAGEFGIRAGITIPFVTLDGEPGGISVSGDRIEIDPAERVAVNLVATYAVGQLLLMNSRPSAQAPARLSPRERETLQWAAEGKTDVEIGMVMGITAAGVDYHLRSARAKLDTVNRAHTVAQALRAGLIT
T1 sequence (A0ABR6DCY1 entry or part of it): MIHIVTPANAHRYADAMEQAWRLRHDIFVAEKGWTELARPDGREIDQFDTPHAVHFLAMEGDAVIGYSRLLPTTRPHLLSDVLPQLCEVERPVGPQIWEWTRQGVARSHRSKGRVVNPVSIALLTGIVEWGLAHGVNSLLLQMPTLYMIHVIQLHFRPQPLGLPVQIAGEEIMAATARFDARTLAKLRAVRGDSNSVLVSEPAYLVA

SMILES	LC-MS/MS, NMR of culture extract; deletion mutant control (MmaI (Ga0373204_3345))	EC50 (MmaR (MmaRDSM5686); purified natural signal added, mmaI promoter-mScarlet reporter, agonist) [nM]	LC-MS/MS of culture extract after heterologous expression (Mrad2831_5763 (MmaI))	EC50 (MmaR (MmaRDSM5686)) [nM]
CCCCCC/C=C\C[C@@H](O)CC(=O)NC1CCOC1=O (stereo partly drawn) [3R-OH-5Z-C12:1-HSL, N-(3R-hydroxy-5-cis-dodecenoyl)-L-homoserine lactone]	this feature was not present in a culture of an in-frame, unmarked deletion mutant	0.2	we observed a feature with the same m/z, retention time, and fragmentation pattern	
CCCCCCCCCC(O)CC(=O)N[C@H]1CCOC1=O (stereo partly shown) [3-OH-C12-HSL]				1.7
